Test results as given in article PMC6327999, “Hydroxyl-substituted double Schiff-base condensed 4-piperidone/cyclohexanones as potential anticancer agents with biological evaluation” (Journal of Enzyme Inhibition and Medicinal Chemistry, 2019).

These compounds were tested on human cervical carcinoma cells (HeLa) (assay: Cytotoxicity, MTT assay, HeLa). Settings: Homo sapiens, HeLa; MTT, 24 hours.
Assay type: cell-based
Text: (§1) Compounds 2a–d, 3a–e, 4a–e, 5a–d, and 6a–c were screened against human neoplastic cell lines such as human lung carcinoma cells (A549), human gastric adenocarcinoma cells (SGC7901), human cervical carcinoma cells (HeLa), human liver hepatocellular carcinoma cell line (Hepg2), human chronic myelogenous leukemia cell line (K562), human acute mononuclear granulocyte leukemia (THP-1), human normal heptical cell line (LO2) (Table 1) using modified MTT assay (3-(4,5-dimethyl-2-thiazolyl)-2,5-diphenyl-2-H-tetrazolium bromide, MTT, Dojindo Laboratories, Tokyo, Japan). All cell lines were maintained at 37 °C in a humidified 5% CO2 and 95% air atmosphere. The HePG2 cell lines were cultured in DMEM containing 10% fetal bovine serum. Other cell lines were grown in medium 1640 and supplemented with 10% fetal bovine serum. […] Controls were prepared with 0.1% DMSO (v/v) only. The cells were seeded in a 96-well plate in 200 µL medium per well at a density of 1 × 10^4 cells/well for 24 hours. The cells were treated with serial concentrations of compound and incubated for 24 hours. Cells with only culture media were used as control. After the media was removed, 20 µL of MTT (5 mg/mL) was added then the plates were incubated for 4 hours at 37 °C in cell culture incubator. The MTT containing media were removed and then 150 µL of DMSO was added to dissolve the dark-blue formazan crystals. The optical density (OD) was measured by a multi-well plate reader (TECAN, Männedorf, Switzerland) at 570 nm. The results are expressed as a decrease in the cell viability (%) in comparison to untreated controls. The concentration of each compound was examined in triplicate, and the IC50 values are expressed in Table 1. The concentrations of the compounds were 50, 20, 10, 5, 2.5, 1, 0.5, 0.1, 0.05 and 0.01 µg/mL. Doxorubicin (DOX) and Curcumin were used as positive controls. […] The concentrations of curcumin used were 100, 50, 25, 12.5, 6.25, 3.125, 1, 0.5 and 0.1 µg/mL.

| SMILES | IC50 [nM] |
| --- | --- |
| COc1cc(Br)cc(/C=N/c2cccc(/C=C3\CN(C)C/C(=C\c4cccc(/N=C/c5cc(Br)cc(OC)c5O)c4)C3=O)c2)c1O [4e] | 2600 ± 100 |
| COc1ccc(/C=N/c2cccc(/C=C3\CN(C)C/C(=C\c4cccc(/N=C/c5ccc(OC)cc5O)c4)C3=O)c2)c(O)c1 [4d] | 4100 ± 100 |
| O=C1/C(=C/c2cccc(/N=C/c3cc(Br)ccc3O)c2)CCC/C1=C\c1cccc(/N=C/c2cc(Br)ccc2O)c1 [3c] | 11400 ± 900 |

Same assay, conditions: quotient of the IC50 values towards nonmalignant LO2 cells

| SMILES | HeLa SI |
| --- | --- |
| COc1cc(Br)cc(/C=N/c2cccc(/C=C3\CN(C)C/C(=C\c4cccc(/N=C/c5cc(Br)cc(OC)c5O)c4)C3=O)c2)c1O [4e] | 4.2 |
| COc1ccc(/C=N/c2cccc(/C=C3\CN(C)C/C(=C\c4cccc(/N=C/c5ccc(OC)cc5O)c4)C3=O)c2)c(O)c1 [4d] | 2.8 |
| O=C1/C(=C/c2cccc(/N=C/c3cc(Br)ccc3O)c2)CCC/C1=C\c1cccc(/N=C/c2cc(Br)ccc2O)c1 [3c] | 1.0 |

Each compound was assayed on human gastric adenocarcinoma cells (SGC7901) (assay: Cytotoxicity, MTT assay, SGC7901). Settings: Homo sapiens, SGC-7901; MTT, 24 hours.
Assay type: cell-based
Text: as §1

| SMILES | IC50 [nM] |
| --- | --- |
| COc1cc(Br)cc(/C=N/c2cccc(/C=C3\CN(C)C/C(=C\c4cccc(/N=C/c5cc(Br)cc(OC)c5O)c4)C3=O)c2)c1O [4e] | 2000 ± 300 |
| COc1ccc(/C=N/c2cccc(/C=C3\CN(C)C/C(=C\c4cccc(/N=C/c5ccc(OC)cc5O)c4)C3=O)c2)c(O)c1 [4d] | 2300 ± 100 |
| O=C1/C(=C/c2cccc(/N=C/c3cc(Br)ccc3O)c2)CCC/C1=C\c1cccc(/N=C/c2cc(Br)ccc2O)c1 [3c] | 5200 ± 800 |

Same assay, conditions: quotient of the IC50 values towards nonmalignant LO2 cells

| SMILES | SGC7901 SI |
| --- | --- |
| COc1cc(Br)cc(/C=N/c2cccc(/C=C3\CN(C)C/C(=C\c4cccc(/N=C/c5cc(Br)cc(OC)c5O)c4)C3=O)c2)c1O [4e] | 5.4 |
| COc1ccc(/C=N/c2cccc(/C=C3\CN(C)C/C(=C\c4cccc(/N=C/c5ccc(OC)cc5O)c4)C3=O)c2)c(O)c1 [4d] | 5.1 |
| O=C1/C(=C/c2cccc(/N=C/c3cc(Br)ccc3O)c2)CCC/C1=C\c1cccc(/N=C/c2cc(Br)ccc2O)c1 [3c] | 2.3 |

These compounds were tested on human lung carcinoma cells (A549) (assay: Cytotoxicity, MTT assay, A549). Settings: Homo sapiens, A549; MTT, 24 hours.
Assay type: cell-based
Text: as §1

| SMILES | IC50 [nM] |
| --- | --- |
| COc1cc(Br)cc(/C=N/c2cccc(/C=C3\CN(C)C/C(=C\c4cccc(/N=C/c5cc(Br)cc(OC)c5O)c4)C3=O)c2)c1O [4e] | 1500 ± 300 |
| COc1ccc(/C=N/c2cccc(/C=C3\CN(C)C/C(=C\c4cccc(/N=C/c5ccc(OC)cc5O)c4)C3=O)c2)c(O)c1 [4d] | 2600 ± 500 |
| O=C1/C(=C/c2cccc(/N=C/c3cc(Br)ccc3O)c2)CCC/C1=C\c1cccc(/N=C/c2cc(Br)ccc2O)c1 [3c] | 10600 ± 1100 |

Same assay, conditions: quotient of the IC50 values towards nonmalignant LO2 cells

| SMILES | A549 SI |
| --- | --- |
| COc1cc(Br)cc(/C=N/c2cccc(/C=C3\CN(C)C/C(=C\c4cccc(/N=C/c5cc(Br)cc(OC)c5O)c4)C3=O)c2)c1O [4e] | 7.2 |
| COc1ccc(/C=N/c2cccc(/C=C3\CN(C)C/C(=C\c4cccc(/N=C/c5ccc(OC)cc5O)c4)C3=O)c2)c(O)c1 [4d] | 4.4 |
| O=C1/C(=C/c2cccc(/N=C/c3cc(Br)ccc3O)c2)CCC/C1=C\c1cccc(/N=C/c2cc(Br)ccc2O)c1 [3c] | 1.1 |

Each compound was assayed on human normal heptical cell line (LO2) (assay: Cytotoxicity, MTT assay, non-malignant LO2). Settings: 24 hours, non-malignant cells.
Assay type: cell-based
Text: as §1

| SMILES | IC50 [nM] |
| --- | --- |
| COc1cc(Br)cc(/C=N/c2cccc(/C=C3\CN(C)C/C(=C\c4cccc(/N=C/c5cc(Br)cc(OC)c5O)c4)C3=O)c2)c1O [4e] | 10900 ± 200 |
| COc1ccc(/C=N/c2cccc(/C=C3\CN(C)C/C(=C\c4cccc(/N=C/c5ccc(OC)cc5O)c4)C3=O)c2)c(O)c1 [4d] | 11700 ± 100 |
| O=C1/C(=C/c2cccc(/N=C/c3cc(Br)ccc3O)c2)CCC/C1=C\c1cccc(/N=C/c2cc(Br)ccc2O)c1 [3c] | 12000 ± 100 |

What follows are compounds tested on human acute mononuclear granulocyte leukemia (THP-1) (assay: Cytotoxicity, MTT assay, THP-1). Settings: Homo sapiens, THP-1; MTT, 24 hours.
Assay type: cell-based
Text: as §1

| SMILES | IC50 [nM] |
| --- | --- |
| COc1cc(Br)cc(/C=N/c2cccc(/C=C3\CN(C)C/C(=C\c4cccc(/N=C/c5cc(Br)cc(OC)c5O)c4)C3=O)c2)c1O [4e] | 900 ± 100 |
| COc1ccc(/C=N/c2cccc(/C=C3\CN(C)C/C(=C\c4cccc(/N=C/c5ccc(OC)cc5O)c4)C3=O)c2)c(O)c1 [4d] | 1000 ± 30 |
| O=C1/C(=C/c2cccc(/N=C/c3cc(Br)ccc3O)c2)CCC/C1=C\c1cccc(/N=C/c2cc(Br)ccc2O)c1 [3c] | 5300 ± 10 |

Same assay, conditions: quotient of the IC50 values towards nonmalignant LO2 cells

| SMILES | THP-1 SI |
| --- | --- |
| COc1cc(Br)cc(/C=N/c2cccc(/C=C3\CN(C)C/C(=C\c4cccc(/N=C/c5cc(Br)cc(OC)c5O)c4)C3=O)c2)c1O [4e] | 11.8 |
| COc1ccc(/C=N/c2cccc(/C=C3\CN(C)C/C(=C\c4cccc(/N=C/c5ccc(OC)cc5O)c4)C3=O)c2)c(O)c1 [4d] | 12.3 |
| O=C1/C(=C/c2cccc(/N=C/c3cc(Br)ccc3O)c2)CCC/C1=C\c1cccc(/N=C/c2cc(Br)ccc2O)c1 [3c] | 2.3 |

What follows are compounds tested on human chronic myelogenous leukemia cell line (K562) (assay: Cytotoxicity, MTT assay, K562). Settings: Homo sapiens, K562; MTT, 24 hours.
Assay type: cell-based
Text: as §1

| SMILES | IC50 [nM] |
| --- | --- |
| COc1cc(Br)cc(/C=N/c2cccc(/C=C3\CN(C)C/C(=C\c4cccc(/N=C/c5cc(Br)cc(OC)c5O)c4)C3=O)c2)c1O [4e] | 1800 ± 10 |
| COc1ccc(/C=N/c2cccc(/C=C3\CN(C)C/C(=C\c4cccc(/N=C/c5ccc(OC)cc5O)c4)C3=O)c2)c(O)c1 [4d] | 2000 ± 20 |
| O=C1/C(=C/c2cccc(/N=C/c3cc(Br)ccc3O)c2)CCC/C1=C\c1cccc(/N=C/c2cc(Br)ccc2O)c1 [3c] | 14000 ± 100 |

Same assay, conditions: quotient of the IC50 values towards nonmalignant LO2 cells

| SMILES | K562 SI |
| --- | --- |
| COc1cc(Br)cc(/C=N/c2cccc(/C=C3\CN(C)C/C(=C\c4cccc(/N=C/c5cc(Br)cc(OC)c5O)c4)C3=O)c2)c1O [4e] | 5.9 |
| COc1ccc(/C=N/c2cccc(/C=C3\CN(C)C/C(=C\c4cccc(/N=C/c5ccc(OC)cc5O)c4)C3=O)c2)c(O)c1 [4d] | 6.0 |
| O=C1/C(=C/c2cccc(/N=C/c3cc(Br)ccc3O)c2)CCC/C1=C\c1cccc(/N=C/c2cc(Br)ccc2O)c1 [3c] | 0.9 |

The compounds below were run on human liver hepatocellular carcinoma cell line (Hepg2) (assay: Cytotoxicity, MTT assay, HePG2). Settings: Homo sapiens, HepG2; MTT, 24 hours.
Assay type: cell-based
Text: as §1, with “µg/mL.” for “µg/mL. Doxorubicin (DOX) and Curcumin were used as positive controls.”

| SMILES | IC50 [nM] |
| --- | --- |
| COc1cc(Br)cc(/C=N/c2cccc(/C=C3\CN(C)C/C(=C\c4cccc(/N=C/c5cc(Br)cc(OC)c5O)c4)C3=O)c2)c1O [4e] | 1270 ± 20 |
| COc1ccc(/C=N/c2cccc(/C=C3\CN(C)C/C(=C\c4cccc(/N=C/c5ccc(OC)cc5O)c4)C3=O)c2)c(O)c1 [4d] | 1110 ± 100 |
| O=C1/C(=C/c2cccc(/N=C/c3cc(Br)ccc3O)c2)CCC/C1=C\c1cccc(/N=C/c2cc(Br)ccc2O)c1 [3c] | 13700 ± 1100 |

Same assay, conditions: quotient of the IC50 values towards nonmalignant LO2 cells

| SMILES | HePG2 SI |
| --- | --- |
| COc1cc(Br)cc(/C=N/c2cccc(/C=C3\CN(C)C/C(=C\c4cccc(/N=C/c5cc(Br)cc(OC)c5O)c4)C3=O)c2)c1O [4e] | 8.6 |
| COc1ccc(/C=N/c2cccc(/C=C3\CN(C)C/C(=C\c4cccc(/N=C/c5ccc(OC)cc5O)c4)C3=O)c2)c(O)c1 [4d] | 10.6 |
| O=C1/C(=C/c2cccc(/N=C/c3cc(Br)ccc3O)c2)CCC/C1=C\c1cccc(/N=C/c2cc(Br)ccc2O)c1 [3c] | 0.9 |

These compounds were tested on human carcinoma cell lines A549, SGC7901, HePG2, HeLa, K562, THP-1 (assay: Cytotoxicity, MTT assay, panel of human carcinoma cell lines (average / overall)). Settings: Homo sapiens; average over the six carcinoma cell lines; read-out: Ave IC50.
Assay type: cell-based
Text: as §1
The cytotoxicity activities against human carcinoma cell lines A549, SGC7901, HePG2, HeLa, K562, THP-1 and cytotoxicity toward LO2 cell lines were evaluated by MTT method. DOX and curcumin were used as positive control. The selectivity index (SI) is the quotient of the IC50 values towards nonmalignant LO2 cells. […] Especially for 4a–e, 5a–d, and 6a–c, this ratio can reach about 92%.

| SMILES | IC50 [nM] |
| --- | --- |
| COc1cc(Br)cc(/C=N/c2cccc(/C=C3\CN(C)C/C(=C\c4cccc(/N=C/c5cc(Br)cc(OC)c5O)c4)C3=O)c2)c1O [4e] | 1700 |
| COc1ccc(/C=N/c2cccc(/C=C3\CN(C)C/C(=C\c4cccc(/N=C/c5ccc(OC)cc5O)c4)C3=O)c2)c(O)c1 [4d] | 2200 |
| O=C1/C(=C/c2cccc(/N=C/c3cc(Br)ccc3O)c2)CCC/C1=C\c1cccc(/N=C/c2cc(Br)ccc2O)c1 [3c] | 10000 |

Same assay, conditions: average over the six carcinoma cell lines

| SMILES | Ave SI |
| --- | --- |
| COc1cc(Br)cc(/C=N/c2cccc(/C=C3\CN(C)C/C(=C\c4cccc(/N=C/c5cc(Br)cc(OC)c5O)c4)C3=O)c2)c1O [4e] | 7.2 |
| COc1ccc(/C=N/c2cccc(/C=C3\CN(C)C/C(=C\c4cccc(/N=C/c5ccc(OC)cc5O)c4)C3=O)c2)c(O)c1 [4d] | 6.9 |
| O=C1/C(=C/c2cccc(/N=C/c3cc(Br)ccc3O)c2)CCC/C1=C\c1cccc(/N=C/c2cc(Br)ccc2O)c1 [3c] | 1.4 |
